For one assay, the target named is T1, GalNAc-T2 (Homo sapiens, UniProt Q10471).
T1 construct: Soluble, secreted expression constructs of human GalNAc-transferases GalNAc-T1, -T2, -T3, -T4, -T6, -T7, and -T11; made in house; host or cells: insect cells (baculovirus)
Put plainly: GalNAc-T2 transferase activities with UDP-GalNAc or UDP-Gal donor (Muc2 acceptor, peptide panel). It is filed as biochemical. Here is the method: (§1) Standard reaction mixtures (50 μl final volume) contained 25 mM cocadylate (pH 7.4), 10 mM MnCl2, 0.25% Triton X-100, 200 μM UDP-[^14C]-GalNAc (2,000 cpm/nmol) (Amersham), 200-500 μM acceptor peptides. Products were quantified by scintillation counting after chromatography on Dowex-1, octadecyl silica cartridges (Bakerbond), or HPLC (PC3.2/3 or mRPC C2/C18 SC2.1/10 Pharmacia, Smart System). […] Glycopeptides were purified on Supelclean LC-18 columns (1 ml, Supelco), and the number of GalNAc residues incorporated evaluated by MALDI-TOF mass spectrometry. The enzyme sources used were semipurified as previously described by successive sequential ion-exchange chromatographies on Amberlite (IRA95, Sigma) or DEAE Sephacel (Pharmacia), S-Sepharose Fast Flow (Pharmacia), and Mini-S™ (PC 3.2/3, Pharmacia) using the Smart System (Pharmacia) (28). Secreted GalNAc-T4 was obtained from a stably transfected CHO line (CHO/GalNA-T4/21A) (8) grown in roller bottles in HAMS F12 supplemented with 10% Fetal Bovine Serum. The experiments illustrated in FIG. 1 was performed with recombinant secreted GalNAc-T4 obtained from a stably transfected CHO line (8). Experiments illustrated in FIGS. 2 and 3 were performed with secreted GalNAc-T4 expressed in High Five cells grown in serum-free medium (8). Structural analysis of glycopeptides were performed by a combination of PFPA (pentafluoropropionic acid) hydrolysis and MALDI-TOF mass spectrometry as previously described (40). Secreted GalNAc-T7 was obtained from infected High Five™ cells grown in serum-free medium (Invitrogen) in upright roller bottles shaken 140 rpm in waterbaths at 27° C. GalNAc-T7 was not purified by Mini-S as the yields from cationic chromatography were low due to its low pI (6.4).
(§2) Galactosyl transferring activities of GalNAc-T1, -T2, and -T3, were assayed with a panel of acceptor peptides in standard reaction mixtures containing 100 μM UDP-Gal instead of UDP-GalNAc. […] Further, analysis was performed with 10 mM α-D-GalNAc-1-benzyl, αGlcNAc-benzyl, and fully occupied GalNAc-glycopeptide, GalNAC6TAP25, at 5 mM.

For a further assay, the target named is T2, GalNAc-T3 (Homo sapiens, UniProt Q14435).
T2 construct: Soluble, secreted expression constructs of human GalNAc-transferases GalNAc-T1, -T2, -T3, -T4, -T6, -T7, and -T11; made in house; host or cells: insect cells (baculovirus)
T2 sequence (Q14435 38-633 limits assumed): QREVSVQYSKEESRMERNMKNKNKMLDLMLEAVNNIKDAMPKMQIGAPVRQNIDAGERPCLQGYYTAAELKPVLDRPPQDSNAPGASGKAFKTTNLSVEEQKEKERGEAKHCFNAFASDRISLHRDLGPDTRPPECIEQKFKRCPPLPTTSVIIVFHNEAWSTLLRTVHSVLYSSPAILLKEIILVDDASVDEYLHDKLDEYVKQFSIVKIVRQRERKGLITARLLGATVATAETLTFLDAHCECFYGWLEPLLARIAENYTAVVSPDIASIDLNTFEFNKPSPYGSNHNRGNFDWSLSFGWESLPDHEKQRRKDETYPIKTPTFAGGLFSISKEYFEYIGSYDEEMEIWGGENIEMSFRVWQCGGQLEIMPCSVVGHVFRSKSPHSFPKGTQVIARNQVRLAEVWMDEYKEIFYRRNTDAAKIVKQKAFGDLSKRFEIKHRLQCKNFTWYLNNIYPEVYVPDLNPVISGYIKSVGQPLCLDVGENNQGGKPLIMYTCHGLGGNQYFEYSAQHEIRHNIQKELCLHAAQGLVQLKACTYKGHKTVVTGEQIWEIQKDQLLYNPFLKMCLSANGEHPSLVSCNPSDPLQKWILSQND
Put plainly: GalNAc-T3 transferase activities with UDP-GalNAc or UDP-Gal donor (EA2 acceptor, peptide panel). It counts as biochemical. Here is the method:
as §1, §2

In assay [1] the target is T3, GalNAc-T4 (Homo sapiens, UniProt Q8N4A0).
T3 construct: using the GalNAc-T4-sol construct that encodes residues 32-578 inserted into pT7T3U19; made in house; host or cells: High Five insect cells (baculovirus, pAcGP67)
Put plainly: Inhibition of glycosylation dependent (GalNAc-glycopeptide) activity of GalNAc-T4, MALDI-TOF time-course. It is filed as biochemical. Particulars: […] free sugar. The protocol: (§3) MALDI-TOF time-course in terminal reactions were performed in reactions of 25 μl containing 2.5 nmol acceptor (glyco)peptide, 40 nmol UDP-GalNAc, and 0.4 μg GalNAc-T4. Sampling of reactions (1 μl) were purified by nano-scale reversed-phase chromatography (Poros R3, PerSeptive Biosystem) and applied directly to the probe with matrix (41). The amount of GalNAc-transferase added was adjusted so that the reaction with the appropriate peptide was near completion in six hours. Reactions were incubated at 37° C. in a shaker bath. At times 0, 2 hours, and 16 hours a 1 μl aliquot was taken and purified. Mass spectra were acquired on either Voyager-DE mass spectrometer equipped with delayed extraction (Perseptive Biosystem Inc.). The matrix used was 2,5-dihydroxybenzoic acid (10 mg/ml, Hewlett-Packard) dissolved in a 2:1 mixture of 0.1% trifluoroacetic acid in 30% aqueous acetonitrile (Rathburn Ltd.).
Quantification of purified proteins was done by Coomassie stained SDS-PAGE and titration of immunoreactivity with the monoclonal antibody, UH6(4G2) (8). […] Wild-type GalNAc-T4 and mutant GalNAc-T4, GalNAc-T4^459H, were analysed with unglycosylated peptides (represented by PSGL-1) or GalNAc glycosylated glycopeptides (represented by GalNAc3TAP25V21) in reactions of 25 μl containing 2.5 nmol acceptor (glyco)peptide, 40 nmol UDP-GalNAc, and 0.4 μg GalNAc-T4. Time-course assays were motioned by MALDI-TOF. Sampling of reactions (1 μl) were purified by nano-scale reversed-phase chromatography (Poros R3, PerSeptive Biosystem) and applied directly to the probe with matrix. Evaluation of inhibition of the glycopeptide specificity of wild-type GalNAc-T4 with free sugars was performed to establish if the lectin domain recognized carbohydrate. […] Further, analysis was performed with 10 mM α-D-GalNAc-1-benzyl, αGlcNAc-benzyl, and fully occupied GalNAc-glycopeptide, GalNAc6TAP25, at 5 mM.

For assay [2], the system named is GalNAc-T4. In words: Glycosylation independent activity of GalNAc-T4 with naked peptides, MALDI-TOF. It is filed as biochemical, human. The following applies: GalNAc-T4 459D or 459H. The protocol: as §3
Quantification of purified proteins was done by Coomassie stained SDS-PAGE and titration of immunoreactivity with the monoclonal antibody, UH6(4G2) (8). […] Wild-type GalNAc-T4 and mutant GalNAc-T4, GalNAc-T4^459H, were analysed with unglycosylated peptides (represented by PSGL-1) or GalNAc glycosylated glycopeptides (represented by GalNAc3TAP25V21) in reactions of 25 μl containing 2.5 nmol acceptor (glyco)peptide, 40 nmol UDP-GalNAc, and 0.4 μg GalNAc-T4. […]

The test system of assay [3] is wild type CHO/MUC1sol-cloneC4. Put plainly: Secretion of MUC1, western blot of medium. It counts as cell-based, Chinese Hamster. Particulars: 1-2 mM; compared to control treated or non-treated cells. The protocol: In order to characterize the secreted MUC1 product SDS-PAGE western blot analysis of harvested culture medium of confluent cultures were performed. Ten to twenty μL culture supernatant was analysed directly or treated with 0.1 U/mL neuraminidase (C. Perfringes VI, Sigma) for 30-60 min at 37° C. Samples were mixed with SDS sample buffer, reduced with DTT, and run on precast 4-20% gels (Biorad). As shown in FIG. 9 anti-MUC1 antibodies detected two forms of MUC1 in the medium; a low molecular weight form migrating as 130-140 kd corresponding to unglycosylated product, and a high molecular weight form migrating above 250 kd. The high molecular weight form was sensitive to neuraminidase treatment as evidenced by a marked shift and retardation in migration. […]
Because GalNAcα-benzyl exerts separate effects on O-glycan processing and mucin expression, the use of the novel selective inhibitor of mucin expression, GalNAcβ-benzyl, allow analysis of mucin expression and secretion in different cell line models. […] Most human adenocarcinoma cell lines express and secret mucins and analysis with antibodies to detect protein expression or probes to detect mRNA can reveal the types and quantities of mucins. […] The inhibitory effect on mucin secretion can be quantified by a number of assays known to the skilled in the art including western blot, ELISA, gelfiltration, immunocapture, and other assays.
(In general: Immunoblotting shows a protein as a band on a membrane.)

The test system of assay [4] is CHOldlD/MUC1F-clone2 cells. In words: MUC1 expression in cell lysates, immunoprecipitation and SDS-PAGE western blot. It is filed as cell-based, Chinese Hamster. The following applies: 2 mM, 36 hours. Here is the method: We next analysed the expression of MUC1 produced by CHOldlD/MUC1F-clone2 cells by SDS-PAGE western analysis. […] Cells were further treated with 2 mM GalNAcα-benzyl, GlcNAcα-benzyl or no inhibitor. Cells were washed and lysed at 24 or 48 hours and the lysates subjected to immunoprecipitation with monoclonal antibody HMFG2, which broadly recognize MUC1 glycoforms. Immunoprecipitates were analysed by SDS-PAGE and western blot using HMFG2 antibody to detect MUC1 expression. […] In striking contrast, treatment with GalNAcα-benzyl had significant effect after 48 hours. […] This indicates some heterogeneity in glycosylation.
As shown in Examples 8 and 9, polypeptide GalNAc-transferases contain lectin domains with binding properties for GalNAc-peptides including GalNAc-MUC1 peptides. […] GalNAcβ-benzyl, the β-anomeric configuration of GalNAc-benzyl (there is a β linkage between the N-acetylgalactosamine and the benzyl ring), was custom synthesized by Alberta Research Council (Canada), and its structure was confirmed by mass spectrometry and ^1H-NMR. […] Cells were then treated with 2 mM GalNAcα-benzyl, GalNAcβ-benzyl, or GlcNAcα-benzyl as control (GlcNAcα-benzyl was shown in Example 10 to have no effect). Cells were washed and lysed as described above after 36 hours and the lysates subjected to immunoprecipitation with anti-MUC1 monoclonal antibodies HMFG2 or 5E5. […] FIG. 17 illustrates the same experiments as in FIG. 16 except that the detection antibody is 5E5 and only Tn and STn MUC1 glycoforms are visualised.

In a further assay the target is T4, GalNAc-T7 (Homo sapiens, UniProt Q86SF2).
T4 construct: made in house; host or cells: High Five insect cells (baculovirus)
T4 sequence (Q86SF2 30-657 limits assumed): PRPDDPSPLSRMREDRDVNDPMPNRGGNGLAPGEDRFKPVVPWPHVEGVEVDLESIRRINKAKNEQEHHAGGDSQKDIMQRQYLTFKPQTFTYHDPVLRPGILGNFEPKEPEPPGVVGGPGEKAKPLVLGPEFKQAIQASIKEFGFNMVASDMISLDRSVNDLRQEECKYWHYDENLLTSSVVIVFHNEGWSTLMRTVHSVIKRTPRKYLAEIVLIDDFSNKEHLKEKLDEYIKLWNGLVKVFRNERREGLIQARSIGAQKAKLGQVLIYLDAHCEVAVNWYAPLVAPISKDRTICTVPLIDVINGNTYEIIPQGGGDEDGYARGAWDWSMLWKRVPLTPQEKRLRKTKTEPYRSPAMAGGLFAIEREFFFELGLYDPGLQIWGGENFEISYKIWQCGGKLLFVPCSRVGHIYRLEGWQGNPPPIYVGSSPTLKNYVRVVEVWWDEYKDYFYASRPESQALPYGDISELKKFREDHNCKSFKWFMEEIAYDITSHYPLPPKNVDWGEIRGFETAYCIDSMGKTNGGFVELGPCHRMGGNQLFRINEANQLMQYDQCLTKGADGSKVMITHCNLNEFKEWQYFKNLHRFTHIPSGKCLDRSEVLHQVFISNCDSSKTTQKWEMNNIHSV
In words: Inhibition of GalNAc-T7 activity with GalNAc2-3EA2 substrate. It counts as biochemical. Particulars: 5 mM. Here is the method: as §1
GalNAc-T7 activity was analysed with GalNAc glycosylated glycopeptides (represented by GalNAc2-3EA2 (7)) in reactions of 25 μl containing 2.5 nmol acceptor (glyco)peptide, 40 nmol UDP-GalNAc, and purified GalNAc-T7. […]

“Also recorded” adds a separate entry of the source. Ends that are not written are not given here.

T1 sequence (Q10471 52-571 limits assumed): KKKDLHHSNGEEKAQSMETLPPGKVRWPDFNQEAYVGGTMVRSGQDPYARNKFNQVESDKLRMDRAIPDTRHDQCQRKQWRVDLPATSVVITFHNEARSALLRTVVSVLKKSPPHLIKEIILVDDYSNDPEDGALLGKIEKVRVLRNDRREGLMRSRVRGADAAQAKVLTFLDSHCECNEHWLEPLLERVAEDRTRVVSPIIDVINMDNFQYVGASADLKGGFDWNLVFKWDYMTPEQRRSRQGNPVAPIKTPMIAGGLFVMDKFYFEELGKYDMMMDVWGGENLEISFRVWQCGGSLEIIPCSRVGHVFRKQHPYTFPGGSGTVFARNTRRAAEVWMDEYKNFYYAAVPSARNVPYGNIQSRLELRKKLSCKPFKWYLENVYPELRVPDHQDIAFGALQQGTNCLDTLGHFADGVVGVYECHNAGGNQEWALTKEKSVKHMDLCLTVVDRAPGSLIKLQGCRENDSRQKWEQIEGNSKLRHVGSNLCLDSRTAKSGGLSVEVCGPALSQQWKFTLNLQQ
T3 sequence (Q8N4A0 32-578): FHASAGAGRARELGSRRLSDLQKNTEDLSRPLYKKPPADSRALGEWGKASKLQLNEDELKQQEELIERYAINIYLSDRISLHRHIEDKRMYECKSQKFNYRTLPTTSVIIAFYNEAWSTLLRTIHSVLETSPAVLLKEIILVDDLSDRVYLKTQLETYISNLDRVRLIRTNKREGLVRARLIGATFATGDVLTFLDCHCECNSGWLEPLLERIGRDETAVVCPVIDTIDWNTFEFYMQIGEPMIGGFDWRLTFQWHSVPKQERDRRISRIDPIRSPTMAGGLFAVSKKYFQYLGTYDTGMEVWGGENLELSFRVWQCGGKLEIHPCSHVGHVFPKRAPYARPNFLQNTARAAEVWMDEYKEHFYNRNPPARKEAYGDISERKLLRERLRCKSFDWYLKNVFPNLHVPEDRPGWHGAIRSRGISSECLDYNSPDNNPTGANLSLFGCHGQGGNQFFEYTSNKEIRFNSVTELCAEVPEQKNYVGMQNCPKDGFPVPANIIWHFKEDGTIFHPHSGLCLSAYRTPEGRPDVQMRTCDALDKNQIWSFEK

Take `CC(=O)N[C@H]1C(O)O[C@H](CO)[C@H](O)[C@@H]1O` (stereo partly drawn) [GalNAc, N-acetylgalactosamine]: at GalNAc-T2 (UDP-Gal donor, Muc2 substrate), the “Inhibition of galactosyltransferase activity of GalNAc-T2” value was “selectively inhibited”. Also, at GalNAc-T3 (UDP-Gal donor, printed Muc2 substrate), the “Inhibition of galactosyltransferase activity of GalNAc-T3” value is “selectively inhibited”. On GalNAc-T4 [1], the “Inhibition of glycosylation dependent specificity of GalNAc-T4” value is “almost completely inhibited”. Also, in the assay with GalNAc-T4 [2], the “Effect on glycosylation independent activities of GalNAc-T4” value is given as “no effect”.
For `CC(=O)N[C@H]1[C@H](OCc2ccccc2)O[C@H](CO)[C@H](O)[C@@H]1O` [GalNAcβ-benzyl, benzyl-2-acetamido-2-deoxy-β-D-galactopyranoside galactosamine], in assay [3], the “Secreted MUC1 in medium” value is on record as “inhibition of secreted MUC1”. For the same compound, the MUC1 expression entry in assay [4] (blot 5E5, cells grown in GalNAc) was “strong inhibition; also recorded: same or better reduction in MUC1 expression”; in assay [4] (blot HMFG2, grown in GalNAc or Gal and GalNAc) it was “same or better reduction in MUC1 expression”. Further, the “SDS-PAGE migration of MUC1 (O-glycosylation)” value in assay [4] (cells grown in Gal and GalNAc) is “no change in the migration of MUC1”.
Take `CC(=O)N[C@H]1[C@@H](OCc2ccccc2)O[C@H](CO)[C@H](O)[C@@H]1O[C@@H]1O[C@H](CO)[C@H](O)[C@H](O)[C@H]1O` [Galβ1-3GalNAcα1-bz]: on GalNAc-T7, the “Inhibition of GalNAc-T7 activity with GalNAc2-3EA2” value was “significantly inhibited”.
With `OC[C@H]1O[C@@H](OCc2ccccc2)[C@H](O)[C@@H](O)[C@H]1O` [bz-βGal], the “Inhibition of GalNAc-T7 activity with GalNAc2-3EA2” value on GalNAc-T7 is recorded as “significantly inhibited”.
For “Muc7: acceptor peptide Ac-CPPTPSATTPAPPSSSAPPETTAA derived from human salivary gland mucin MUC7”, in the assay with GalNAc-T2 (peptide as acceptor substrate), the “GalNAc-T2 activity with UDP-Gal by acceptor peptide” value is 13 nmol/min/mL. The “GalNAc-T3 activity with UDP-Gal by acceptor peptide” value with GalNAc-T3 (peptide as acceptor substrate) was 0.1 nmol/min/mL.

For the origin of these results see patent US7338932B2, “Methods of modulating functions of polypeptide GalNAc-transferases and of screening test substances to find agents herefor, pharmaceutical compositions comprising such agents and the use of such agents for preparing medicaments” (Glycozym APS, priority 2000, dated 2008).
